Target: EtCYP112 (Erwinia tracheiphila, UniProt A0A0M2KIP9)
Assay: GC-MS product analysis, reconstituted system
Assay type: biochemical
Settings: spinach Fd, EtFdR

| Compound | GC-MS product analysis, reconstituted system (NADPH) | GC-MS product analysis, reconstituted system (NADPH in excess) |
| --- | --- | --- |
| C=C1C[C@]23C[C@H]1CC[C@H]2[C@]1(C=O)CCC[C@@](C)(C(=O)O)[C@H]1[C@@H]3C(=O)O [GA24] | while GA15 and GA24 were readily converted to GA9, GA25 is not | – |
| C=C1C[C@]23C[C@H]1CC[C@H]2[C@]1(C)CCC[C@@](C)(C(=O)O)[C@H]1[C@@H]3C(=O)O [GA12] | – | reconstituted system with purified ferredoxin reductase from E. tracheiphila (EtFdR) and spinach ferredoxin (Fd), converting GA12 |

— publication PMC6020689 (Angewandte Chemie (International ed. in English), 2018)
